This passage reports relative viability results from the supplement of paper PMC10307832.

Holding throughout (test): relative viability (nuclei count vs DMSO), 5 days (fraction); higher = more cells survive
Compound in the test “VX-702 + Palbociclib”: NC(=O)c1ccc(N(C(N)=O)c2c(F)cccc2F)nc1-c1ccc(F)cc1F [VX-702] + CC(=O)c1c(C)c2cnc(Nc3ccc(N4CCNCC4)cn3)nc2n(C2CCCC2)c1=O [Palbociclib] (partner 0.5 µM)
In outline:
(§1)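 One day after seeding in 1536-well plates, lung cancer cell lines were dosed by pin tool. Dosing was either single-drug or a fixed anchor-drug dose plus five library-drug doses (not always all listed) in √10 steps. After 5 days, nuclei were stained in one fix-and-stain step and counted on 4× images, and relative viability is the nuclei count of treated wells over that of vehicle wells, given as the median of duplicate plates.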

Compound in the test “VX-702 + Tozasertib”: NC(=O)c1ccc(N(C(N)=O)c2c(F)cccc2F)nc1-c1ccc(F)cc1F [VX-702] + Cc1cc(Nc2cc(N3CCN(C)CC3)nc(Sc3ccc(NC(=O)C4CC4)cc3)n2)n[nH]1 [Tozasertib] (partner 0.1 µM)
The method, boiled down:
as §1

Compound in the test “VX-702 + Alpelisib”: NC(=O)c1ccc(N(C(N)=O)c2c(F)cccc2F)nc1-c1ccc(F)cc1F [VX-702] + Cc1nc(NC(=O)N2CCC[C@H]2C(N)=O)sc1-c1ccnc(C(C)(C)C(F)(F)F)c1 [Alpelisib] (partner 2 µM)
The method, boiled down: as §1

Compound in the test “VX-702 + Phenformin”: NC(=O)c1ccc(N(C(N)=O)c2c(F)cccc2F)nc1-c1ccc(F)cc1F [VX-702] + N=C(N)NC(=N)NCCc1ccccc1 [Phenformin] (partner 250 µM)
The method, boiled down:
as §1

Consider NCI-H647, for which the relative viability came out at 0.349 in the test with VX-702 + Palbociclib (first compound 0.02 µM); 0.373 with VX-702 + Palbociclib (first compound 0.2 µM); 0.378 with VX-702 + Palbociclib (first compound 0.6325 µM); 0.495 with VX-702 + Palbociclib (first compound 2 µM); 0.323 in the test with VX-702 + Tozasertib (first compound 0.02 µM); 0.248 with VX-702 + Tozasertib (first compound 0.2 µM). Besides, the relative viability with VX-702 + Tozasertib (first compound 0.6325 µM) came out at 0.208; with VX-702 + Tozasertib (first compound 2 µM), 0.436; with VX-702 + Alpelisib (first compound 0.02 µM), 1.29; with VX-702 + Alpelisib (first compound 0.2 µM), 1; with VX-702 + Alpelisib (first compound 0.6325 µM), 1.08; in the test with VX-702 + Alpelisib (first compound 2 µM), 1.14. The relative viability is 0.487 in the test with VX-702 + Phenformin (first compound 0.02 µM), 0.654 in the test with VX-702 + Phenformin (first compound 0.2 µM), 0.46 with VX-702 + Phenformin (first compound 0.6325 µM) and 0.728 with VX-702 + Phenformin (first compound 2 µM).

As for NCI-H1299, the relative viability stood at 1.14 with VX-702 + Alpelisib (first compound 0.02 µM), 1.1 with VX-702 + Alpelisib (first compound 0.2 µM), 1.21 with VX-702 + Alpelisib (first compound 0.6325 µM) and 1.15 with VX-702 + Alpelisib (first compound 2 µM).

Take NCI-H1563: the relative viability with VX-702 + Alpelisib (first compound 0.02 µM) was 0.905; with VX-702 + Alpelisib (first compound 0.2 µM), 0.997; in the test with VX-702 + Alpelisib (first compound 0.6325 µM), 0.835; with VX-702 + Alpelisib (first compound 2 µM), 0.876; in the test with VX-702 + Phenformin (first compound 0.02 µM), 0.702; in the test with VX-702 + Phenformin (first compound 0.2 µM), 0.684. Moreover, the relative viability with VX-702 + Phenformin (first compound 0.6325 µM) came out at 0.694; with VX-702 + Phenformin (first compound 2 µM), 0.592.

Turning to NCI-H1648, the relative viability in the test with VX-702 + Palbociclib (first compound 0.02 µM) came to 0.268; with VX-702 + Palbociclib (first compound 0.2 µM), 0.294; in the test with VX-702 + Palbociclib (first compound 0.6325 µM), 0.244; with VX-702 + Palbociclib (first compound 2 µM), 0.319; with VX-702 + Tozasertib (first compound 0.02 µM), 0.419; with VX-702 + Tozasertib (first compound 0.2 µM) it was 0.42. The relative viability came out at 0.397 in the test with VX-702 + Tozasertib (first compound 0.6325 µM) and 0.426 with VX-702 + Tozasertib (first compound 2 µM).

Consider NCI-H1650, for which the relative viability was 0.325 with VX-702 + Palbociclib (first compound 0.02 µM); 0.35 with VX-702 + Palbociclib (first compound 0.2 µM); 0.445 in the test with VX-702 + Palbociclib (first compound 0.6325 µM); 0.297 in the test with VX-702 + Palbociclib (first compound 2 µM); 0.353 with VX-702 + Tozasertib (first compound 0.02 µM); 0.305 in the test with VX-702 + Tozasertib (first compound 0.2 µM). The relative viability in the test with VX-702 + Tozasertib (first compound 0.6325 µM) is 0.353; with VX-702 + Tozasertib (first compound 2 µM), 0.494; with VX-702 + Phenformin (first compound 0.02 µM), 0.542; in the test with VX-702 + Phenformin (first compound 0.2 µM), 0.625; with VX-702 + Phenformin (first compound 0.6325 µM), 0.411; with VX-702 + Phenformin (first compound 2 µM), 0.468.

NCI-H1703: the relative viability in the test with VX-702 + Alpelisib (first compound 0.02 µM) is 0.304; with VX-702 + Alpelisib (first compound 0.2 µM), 0.376; in the test with VX-702 + Alpelisib (first compound 0.6325 µM), 0.215; with VX-702 + Alpelisib (first compound 2 µM), 0.334.

Take NCI-H1792: the relative viability with VX-702 + Palbociclib (first compound 0.02 µM) came to 0.614; in the test with VX-702 + Palbociclib (first compound 0.2 µM) it was 0.587; with VX-702 + Palbociclib (first compound 0.6325 µM), 0.653; with VX-702 + Palbociclib (first compound 2 µM), 0.546; with VX-702 + Alpelisib (first compound 0.02 µM), 0.668; with VX-702 + Alpelisib (first compound 0.2 µM) it was 0.66. The relative viability in the test with VX-702 + Alpelisib (first compound 0.6325 µM) stood at 0.637; with VX-702 + Alpelisib (first compound 2 µM) it was 0.479; with VX-702 + Phenformin (first compound 0.02 µM) it was 0.314; in the test with VX-702 + Phenformin (first compound 0.2 µM) it was 0.303; with VX-702 + Phenformin (first compound 0.6325 µM), 0.45; with VX-702 + Phenformin (first compound 2 µM), 0.237.

NCI-H2342: the relative viability came out at 0.511 in the test with VX-702 + Palbociclib (first compound 0.02 µM); 0.606 with VX-702 + Palbociclib (first compound 0.2 µM); 0.512 with VX-702 + Palbociclib (first compound 0.6325 µM); 0.539 with VX-702 + Palbociclib (first compound 2 µM); 0.527 in the test with VX-702 + Tozasertib (first compound 0.02 µM); 0.468 in the test with VX-702 + Tozasertib (first compound 0.2 µM). Also, the relative viability stood at 0.484 with VX-702 + Tozasertib (first compound 0.6325 µM); 0.524 with VX-702 + Tozasertib (first compound 2 µM); 0.594 with VX-702 + Phenformin (first compound 0.02 µM); 0.686 with VX-702 + Phenformin (first compound 0.2 µM); 0.58 in the test with VX-702 + Phenformin (first compound 0.6325 µM); 0.719 in the test with VX-702 + Phenformin (first compound 2 µM).

On to SW 900, for which the relative viability with VX-702 + Palbociclib (first compound 0.02 µM) stood at 0.577; in the test with VX-702 + Palbociclib (first compound 0.2 µM), 0.566; with VX-702 + Palbociclib (first compound 0.6325 µM), 0.575; in the test with VX-702 + Palbociclib (first compound 2 µM) it was 0.539; in the test with VX-702 + Tozasertib (first compound 0.02 µM), 0.87; in the test with VX-702 + Tozasertib (first compound 0.2 µM) it was 0.494. Moreover, the relative viability is 0.621 in the test with VX-702 + Tozasertib (first compound 0.6325 µM); 0.636 with VX-702 + Tozasertib (first compound 2 µM); 0.634 in the test with VX-702 + Phenformin (first compound 0.02 µM); 0.585 with VX-702 + Phenformin (first compound 0.2 µM); 0.869 with VX-702 + Phenformin (first compound 0.6325 µM); 0.546 in the test with VX-702 + Phenformin (first compound 2 µM).
